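Exposure lasted 48 hours, with cells grown in 96-well plates and compounds tested at five concentrations. GI50 marks 50% less growth.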 Activity calls are given as the source filed them. No stated cut-off is given here; in the data, active = GI50 up to about 1.1 µM and inactive = higher.
Columns and labels:
Assay in all cases: NCI tumour cell line growth inhibition, 48 h
HT-29 = test system: HT-29
ACHN = test system: ACHN
UO-31 = test system: UO-31
SF-539 = test system: SF-539
NCI-H522 = test system: NCI-H522
NCI-H460 = test system: NCI-H460
CAKI-1 = test system: CAKI-1
COLO 205 = test system: COLO 205
KM12 = test system: KM12
IGROV-1 = test system: IGROV-1
OVCAR-4 = test system: OVCAR-4
RXF 393 = test system: RXF 393
RPMI-8226 = test system: RPMI-8226
HCC 2998 = test system: HCC 2998
MOLT-4 = test system: MOLT-4
M14 = test system: M14
CCRF-CEM = test system: CCRF-CEM
A498 = test system: A498
UACC-257 = test system: UACC-257

CCOC(=O)c1cc(OC(=O)CC)c2c(OC)ccc(OC)c2c1 was tested, and the GI50 (HT-29) was > 10 µM (inactive), the GI50 (ACHN) was 35.2 µM (inactive) and the GI50 (UO-31) was 74.1 µM (inactive). The GI50 (SF-539) was 47.2 µM (inactive), the GI50 (NCI-H522) was > 100 µM (inactive) and the GI50 (NCI-H460) was > 100 µM (inactive). The GI50 (CAKI-1) was 46.2 µM (inactive), the GI50 (COLO 205) was > 100 µM (inactive) and the GI50 (KM12) was 42.7 µM (inactive). For the same compound, the GI50 (IGROV-1) was > 100 µM (inactive), the GI50 (OVCAR-4) was 52.4 µM (inactive) and the GI50 (RXF 393) was 30.5 µM (inactive). For the same compound, the GI50 (RPMI-8226) was 30.5 µM (inactive), the GI50 (HCC 2998) was > 100 µM (inactive) and the GI50 (MOLT-4) was 43.7 µM (inactive).

For CN(C)c1ccc(/C=C(\NC(=O)c2ccccc2)c2nc3cncnc3[nH]2)cc1, the GI50 (M14) was > 100 µM (inactive), the GI50 (HT-29) was > 100 µM (inactive) and the GI50 (ACHN) was > 100 µM (inactive). The GI50 (UO-31) was > 100 µM (inactive), the GI50 (SF-539) was > 100 µM (inactive) and the GI50 (NCI-H522) was > 100 µM (inactive). The GI50 (CAKI-1) was > 100 µM (inactive), the GI50 (CCRF-CEM) was > 100 µM (inactive) and the GI50 (COLO 205) was > 100 µM (inactive). The GI50 (KM12) was > 100 µM (inactive), the GI50 (IGROV-1) was > 100 µM (inactive) and the GI50 (OVCAR-4) was > 100 µM (inactive). The GI50 (RXF 393) was > 100 µM (inactive), the GI50 (HCC 2998) was > 100 µM (inactive) and the GI50 (MOLT-4) was > 100 µM (inactive).

CN1CCN(C)C1c1cccc(C2N(C)CCN2C)c1 was tested, and the GI50 (M14) was > 100 µM (inactive), the GI50 (HT-29) was > 100 µM (inactive) and the GI50 (ACHN) was > 100 µM (inactive). The GI50 (UO-31) was > 100 µM (inactive), the GI50 (SF-539) was > 100 µM (inactive) and the GI50 (NCI-H522) was > 100 µM (inactive). The GI50 (A498) was > 100 µM (inactive), the GI50 (NCI-H460) was > 100 µM (inactive) and the GI50 (CCRF-CEM) was > 100 µM (inactive). For the same compound, the GI50 (COLO 205) was > 100 µM (inactive), the GI50 (KM12) was > 100 µM (inactive) and the GI50 (IGROV-1) was > 100 µM (inactive). The GI50 (OVCAR-4) was > 100 µM (inactive), the GI50 (RXF 393) was > 100 µM (inactive) and the GI50 (RPMI-8226) was > 100 µM (inactive). The GI50 (HCC 2998) was > 100 µM (inactive) and the GI50 (MOLT-4) was > 100 µM (inactive).

With CC(C)(C)S(=O)OC12CC3CC(CC(C3)C1)C2 (centres undefined) the GI50 (M14) was > 100 µM (inactive), the GI50 (HT-29) was > 100 µM (inactive) and the GI50 (ACHN) was > 100 µM (inactive). The GI50 (UO-31) was 92 µM (inactive), the GI50 (SF-539) was > 100 µM (inactive) and the GI50 (NCI-H522) was > 100 µM (inactive). For the same compound, the GI50 (NCI-H460) was > 100 µM (inactive), the GI50 (CCRF-CEM) was > 100 µM (inactive) and the GI50 (COLO 205) was > 100 µM (inactive). For the same compound, the GI50 (KM12) was > 10 µM (inactive), the GI50 (IGROV-1) was > 100 µM (inactive) and the GI50 (OVCAR-4) was > 100 µM (inactive). The GI50 (RXF 393) was > 100 µM (inactive), the GI50 (RPMI-8226) was > 100 µM (inactive) and the GI50 (MOLT-4) was > 100 µM (inactive).

For CC(C)(C)c1cc(C(O)(C(F)(F)F)C(F)(F)F)c2c(c1)C(C(F)(F)F)(C(F)(F)F)OC(c1ccccc1)(C(C)(C)C)N2 (centres undefined), the GI50 (M14) was 0.659 µM (active), the GI50 (HT-29) was 3.4 µM (inactive) and the GI50 (ACHN) was 3.7 µM (inactive). For the same compound, the GI50 (UO-31) was 4.04 µM (inactive), the GI50 (SF-539) was > 100 µM (inactive) and the GI50 (NCI-H522) was 3.03 µM (inactive). For the same compound, the GI50 (NCI-H460) was 2.65 µM (inactive), the GI50 (CAKI-1) was 4.02 µM (inactive) and the GI50 (COLO 205) was 4.08 µM (inactive). The GI50 (KM12) was 4.5 µM (inactive), the GI50 (UACC-257) was 4.99 µM (inactive) and the GI50 (IGROV-1) was 4.33 µM (inactive). The GI50 (OVCAR-4) was 14.4 µM (inactive), the GI50 (RXF 393) was 3.37 µM (inactive) and the GI50 (RPMI-8226) was 3.07 µM (inactive). For the same compound, the GI50 (HCC 2998) was 8.07 µM (inactive) and the GI50 (MOLT-4) was 2.07 µM (inactive).

Source: ChEMBL document CHEMBL1201862, “PubChem BioAssay data set” (2004)
